Measured values published in ChEMBL document CHEMBL1201862, “PubChem BioAssay data set” (2004).
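Dose response: 5 concentrations. Exposure: 48 h. Format: 96-well plates. Endpoint: linear interpolation; highest concentration if not reached. Here, GI50 denotes the concentration required for 50% inhibition of growth.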 Calls of active or inactive are those of the source. No stated cut-off is given here; in the data, active = GI50 up to about 1.1 µM and inactive = higher.

Legend:
Assay in all cases: NCI tumour cell line growth inhibition, 48 h
[1] = test system: A498
[2] = test system: ACHN
[3] = test system: CAKI-1
[4] = test system: EKVX
[5] = test system: HCT-15
[6] = test system: HOP-92
[7] = test system: IGROV-1
[8] = test system: K562
[9] = test system: MCF7
[10] = test system: MDA-MB-231
[11] = test system: Malme-3M
[12] = test system: NCI-H460
[13] = test system: OVCAR-8
[14] = test system: PC-3
[15] = test system: SF-539
[16] = test system: SK-OV-3
[17] = test system: SNB-19
[18] = test system: T47D
[19] = test system: UO-31
[20] = test system: LOX IMVI

SMILES | GI50 [1] | GI50 [2] | GI50 [3] | GI50 [4] | GI50 [5] [µM] | GI50 [6] | GI50 [7] | GI50 [8] | GI50 [9] | GI50 [10] | GI50 [11] | GI50 [12] | GI50 [13] | GI50 [14] | GI50 [15] | GI50 [16] | GI50 [17] | GI50 [18] | GI50 [19] | GI50 [20]
Cc1ncc([N+](=O)[O-])n1CCN=[N+]=[N-] | > 100 µM (inactive) | > 100 µM (inactive) | > 100 µM (inactive) | > 100 µM (inactive) | > 100 | > 100 µM (inactive) | > 100 µM (inactive) | > 100 µM (inactive) | > 100 µM (inactive) | > 100 µM (inactive) | > 100 µM (inactive) | > 100 µM (inactive) | > 100 µM (inactive) | > 100 µM (inactive) | > 100 µM (inactive) | > 100 µM (inactive) | > 100 µM (inactive) | > 100 µM (inactive) | > 100 µM (inactive) | 
O=C(CCCN1CCC2(CC1)CC(=O)N(N1CCOCC1)C2=O)c1ccccc1 |  | > 100 µM (inactive) | > 100 µM (inactive) | > 100 µM (inactive) | > 100 |  | > 100 µM (inactive) | > 100 µM (inactive) | > 100 µM (inactive) | > 100 µM (inactive) | > 100 µM (inactive) |  | > 100 µM (inactive) | > 100 µM (inactive) | > 100 µM (inactive) | > 100 µM (inactive) | > 100 µM (inactive) | > 100 µM (inactive) | > 100 µM (inactive) | > 100 µM (inactive)
N#C/C(=C\c1ccc(F)cc1)c1nc2ccccc2c(=O)[nH]1 |  | > 100 µM (inactive) | > 100 µM (inactive) | > 100 µM (inactive) | > 100 | 82.2 µM (inactive) | > 100 µM (inactive) | > 100 µM (inactive) | > 100 µM (inactive) | 48.3 µM (inactive) | > 100 µM (inactive) | > 100 µM (inactive) | > 100 µM (inactive) | > 100 µM (inactive) | > 100 µM (inactive) | > 100 µM (inactive) | > 100 µM (inactive) | > 100 µM (inactive) | > 100 µM (inactive) | > 100 µM (inactive)
O=c1[nH]nc(-c2ccccc2)n1/N=C\CC/C=N\n1c(-c2ccccc2)n[nH]c1=O |  | 36.6 µM (inactive) | 49 µM (inactive) | 44.3 µM (inactive) | 21.4 | 25.5 µM (inactive) | > 49.9 µM (inactive) | 31.1 µM (inactive) | 26.7 µM (inactive) | 29.2 µM (inactive) | 25.2 µM (inactive) | > 47.6 µM (inactive) | 30.1 µM (inactive) | 28.1 µM (inactive) | 27.4 µM (inactive) | 28.6 µM (inactive) | 45.1 µM (inactive) | 30.8 µM (inactive) | > 67.6 µM (inactive) | 12.9 µM (inactive)
NC(=O)c1nnc2cc(F)c(F)cc2c1N | 41.1 µM (inactive) | 52.1 µM (inactive) | 61.2 µM (inactive) | 44.7 µM (inactive) | > 100 |  | 47.5 µM (inactive) | > 100 µM (inactive) | 37.9 µM (inactive) | 44.1 µM (inactive) | 29.7 µM (inactive) | 58.3 µM (inactive) | 37.3 µM (inactive) | 95.1 µM (inactive) | 36.4 µM (inactive) | 25.5 µM (inactive) | 30.8 µM (inactive) | 40.7 µM (inactive) | 22.1 µM (inactive) | 57.3 µM (inactive)
CCOC(=O)c1c(-c2ccccc2)c(OC)cn1C | > 10 µM (inactive) | > 10 µM (inactive) | > 10 µM (inactive) | > 10 µM (inactive) | > 10 |  | > 10 µM (inactive) | > 10 µM (inactive) | > 10 µM (inactive) | > 10 µM (inactive) | > 10 µM (inactive) | > 10 µM (inactive) | > 10 µM (inactive) | > 10 µM (inactive) | > 10 µM (inactive) | > 10 µM (inactive) | > 10 µM (inactive) | > 10 µM (inactive) |  | > 10 µM (inactive)
CCOC(=O)c1c(SCCCN2CCCCC2)n(-c2ccccc2)c(=S)n(-c2ccccc2)c1=O | 20.1 µM (inactive) | 20.6 µM (inactive) |  | 27.8 µM (inactive) | 17.4 | 14.4 µM (inactive) |  | 5.48 µM (inactive) | 12.1 µM (inactive) | 19.4 µM (inactive) | 16.3 µM (inactive) |  | 19.3 µM (inactive) | 16.4 µM (inactive) | 14.8 µM (inactive) |  | 16.7 µM (inactive) | 16.7 µM (inactive) | 15.5 µM (inactive) | 
O=c1c(O)c(-c2ccccc2)oc2c(CP(=O)(O)O)cccc12 | > 100 µM (inactive) |  | > 100 µM (inactive) | > 100 µM (inactive) | > 100 |  | > 100 µM (inactive) | > 100 µM (inactive) | > 100 µM (inactive) | > 100 µM (inactive) | > 100 µM (inactive) | > 100 µM (inactive) |  | > 100 µM (inactive) | > 100 µM (inactive) | > 100 µM (inactive) |  | > 100 µM (inactive) |  | 
